Measurements from patent publication US10875832B2, “Substituted pyrimidines for treating bacterial infections” (FORGE THERAPEUTICS, INC., priority 2015, dated 2020).
Values after ≈ are worked out from the molar mass of the structure shown.

Tests used:
[1] = system: E. coli ATCC 25922; test: MIC by broth microdilution, E. coli ATCC 25922, no FBS; format: cell-based; conditions: Escherichia coli, ATCC25922, 35° C., 18-24 h
Method: (§1) Minimal inhibitory concentrations (MIC) were determined by the broth microdilution method in accordance with the Clinical and Laboratory Standards Institute (CLSI) guidelines. In brief, organism suspensions were adjusted to a 0.5 McFarland standard to yield a final inoculum between 3×10^5 and 7×10^5 colony-forming units (CFU)/mL. Drug dilutions and inocula were made in sterile, cation adjusted Mueller-Hinton Broth (Beckton Dickinson). An inoculum volume of 100 μL was added to wells containing 100 μL of broth with 2-fold serial dilutions of drug. All inoculated microdilution trays were incubated in ambient air at 35° C. for 18-24 h. […] Performance of the assay was monitored by the use of laboratory quality-control strains and levofloxacin, a compound with a defined MIC spectrum, in accordance with CLSI guidelines.

[2] = system: E. coli BW25113; test: MIC by broth microdilution, E. coli BW25113, no FBS; format: cell-based; conditions: Escherichia coli, 35° C., 18-24 h
Method: as §1

[3] = system: E. coli imp mutant; test: MIC by broth microdilution, E. coli imp mutant; format: cell-based; conditions: Escherichia coli, read-out: MIC E. coli imp mutant
Method: as §1

[4] = system: E. coli delta to IC mutant; test: MIC by broth microdilution, E. coli delta tolC mutant; format: cell-based; conditions: Escherichia coli, read-out: MIC E. coli delta to IC mutant
Method: as §1

[5] = system: S. aureus ATCC 29213; test: MIC by broth microdilution, S. aureus ATCC 29213; format: cell-based; conditions: Staphylococcus aureus, ATCC29213; 35° C., 18-24 h
Method: as §1

[6] = system: P. aeruginosa 209; test: MIC by broth microdilution, P. aeruginosa 209; format: cell-based; conditions: Pseudomonas aeruginosa, 35° C., 18-24 h
Method: as §1

[7] = system: P. aeruginosa 210 delta mexAB-OprM; test: MIC by broth microdilution, P. aeruginosa 210 delta mexAB-OprM; format: cell-based; conditions: Pseudomonas aeruginosa, read-out: MIC P. aeruginosa 210 delta mexAB-OprM
Method: as §1

[8] = biological target: Klebsiella pneumoniae LpxC (Klebsiella pneumoniae subsp. pneumoniae (strain ATCC 700721 / MGH 78578), UniProt A6T4N9); test: Inhibition Assay against Klebsiella pneumoniae LpxC (LC-MS/MS); format: biochemical; conditions: 0.2 nM Kpn LpxC, 22° C., 60 minutes
Method: LpxC inhibition assays were performed using liquid chromatography with tandem mass spectrometry. Assays were performed, in duplicate, in opaque, 96-well microplates in a total assay volume of 50 μL. The incubation mixture contained: LpxC (0.2 nM Kpn), 0.8 μM UDP-3-O—[(R)-3-hydroxymyristoyl]-N-acetyl-glucosamine, 40 mM Bis-Tris/HCl buffer (pH 5.9), 5 mM sodium phosphate buffer (NaH2PO4/Na2HPO4, pH 7.0), 1 mM DTT, 0.1% (w/v) fatty-acid free BSA, 10% DMSO (v/v, with or without compound). The reactions were incubated at 22° C. for 60 minutes (with mild shaking), then terminated by the addition of 25 μL 0.25 N HCl. Samples were analyzed using a LC-MS system to measure native LpxC substrate and reaction product. IC50 analysis was done using GeneData Screener and a four parameter variable slope normalized to controls. Test compounds were prepared as 8-point dose-response curves (factor dilution 2) in triplicate, starting at 1 μM final concentration. Each assay plate included 6 wells used for the Z′ factor calculation, 3 as a positive control for the assay and 3 as a negative control. The robustness was calculated as the median Z′ factor for 5 plates.

| Structure (SMILES) | MIC [1] [µg/mL] | MIC [2] [µg/mL] | MIC [3] [µg/mL] | MIC [4] [µg/mL] | MIC [5] [µg/mL] | MIC [6] [µg/mL] | MIC [7] [µg/mL] | IC50 [8] [nM] |
| --- | --- | --- | --- | --- | --- | --- | --- | --- |
| O=c1[nH]cnc(CNc2ccc(C#Cc3ccc(CN4CCOCC4)cc3)cc2)c1O [Compound 98] | 1 to 8 (≈ 2.4 to 19.2 µM) | < 1 | 1 to 8 (≈ 2.4 to 19.2 µM) | < 1 | > 32 | > 32 | > 32 | 10 to 100 |
| O=C(O)c1ccc(C#Cc2ccc(NCc3nc[nH]c(=O)c3O)cc2)cc1 [Compound 101] | > 32 | > 32 | > 32 | 1 to 8 (≈ 2.77 to 22.1 µM) | > 32 | > 32 | > 32 | – |
| O=C(c1ccc(C#CC#Cc2ccc(NCc3nc[nH]c(=O)c3O)cc2)cc1)N1CCOCC1 [Compound 97] | 1 to 8 (≈ 2.2 to 17.6 µM) | < 1 | < 1 | < 1 | > 32 | > 32 | > 32 | 10 to 100 |
| Cn1cc(O)c(=O)cc1CNC(=O)c1ccc(C#Cc2ccccc2)cc1 [Compound 94] | > 32 | > 32 | > 32 | > 32 | > 32 | > 32 | > 32 | – |
| Cc1nc(C(=O)O)c(O)c(=O)n1CC(O)c1ccc(-c2ccccc2)cc1 (centres unmarked) [Compound 83, 1-(2-([1,1′-biphenyl]-4-yl)-2-hydroxyethyl)-5-hydroxy-2-methyl-6-oxo-1,6-dihydro pyrimidine-4-carboxylic acid] | > 32 | > 32 | 1 to 8 (≈ 2.73 to 21.8 µM) | 8 to 32 (≈ 21.8 to 87.3 µM) | > 32 | > 32 | > 32 | – |
| O=C(c1ccc(C#CC#Cc2ccc(NCc3nc[nH]c(=O)c3O)cc2)cc1)N1CCC[C@H]1CO [Compound 99] | > 32 | 1 to 8 (≈ 2.13 to 17.1 µM) | < 1 | < 1 | > 32 | > 32 | > 32 | – |
| CCN(CC)CCCNC(=O)c1ccc(C#CC#Cc2ccc(NCc3nc[nH]c(=O)c3O)cc2)cc1 [Compound 76] | 8 to 32 (≈ 16.1 to 64.3 µM) | 1 to 8 (≈ 2.01 to 16.1 µM) | 1 to 8 (≈ 2.01 to 16.1 µM) | < 1 | > 32 | > 32 | > 32 | – |
| CS(=O)(=O)Cc1nc(COc2ccc(C#CC#Cc3ccccc3)cc2)[nH]c(=O)c1O [Compound 70, 5-hydroxy-6-((methylsulfonyl)methyl)-2-((4-(phenylbuta-1,3-diyn-1-yl)phenoxy)methyl)pyrimidin-4(3H)-one] | > 32 | > 32 | 1 to 8 (≈ 2.3 to 18.4 µM) | 8 to 32 (≈ 18.4 to 73.7 µM) | 8 to 32 (≈ 18.4 to 73.7 µM) | > 32 | > 32 | – |
| CN(C)C1CCN(C(=O)c2ccc(C#CC#Cc3ccc(NCc4nc[nH]c(=O)c4O)cc3)cc2)CC1 [Compound 74] | 8 to 32 (≈ 16.1 to 64.6 µM) | 1 to 8 (≈ 2.02 to 16.1 µM) | 1 to 8 (≈ 2.02 to 16.1 µM) | < 1 | > 32 | > 32 | > 32 | – |
| O=C(O)c1ccc(C#CC#Cc2ccc(NCc3nc[nH]c(=O)c3O)cc2)cc1 [Compound 87] | 1 to 8 (≈ 2.59 to 20.8 µM) | 1 to 8 (≈ 2.59 to 20.8 µM) | 1 to 8 (≈ 2.59 to 20.8 µM) | < 1 | > 32 | > 32 | > 32 | – |
| Cc1nc(C(=O)O)c(O)c(=O)n1CC(O)c1ccc(C#Cc2ccccc2)cc1 (centres unmarked) [Compound 90] | > 32 | > 32 | 1 to 8 (≈ 2.56 to 20.5 µM) | 8 to 32 (≈ 20.5 to 82 µM) | > 32 | > 32 | > 32 | – |
| COC(=O)c1ccc(C#CC#Cc2ccc(NCc3nc[nH]c(=O)c3O)cc2)cc1 [Compound 71, Methyl 4-((4-(((5-hydroxy-6-oxo-1,6-dihydropyrimidin-4-yl)methyl)amino)phenyl)buta-1,3-diyn-1-yl)benzoate] | > 32 | > 32 | > 32 | > 32 | > 32 | > 32 | > 32 | – |
